In patent US11098055B2, “Ester ACC inhibitors and uses thereof” (Gilead Apollo, LLC, priority 2015, dated 2021):
Values after ≈ are worked out from the molar mass of the structure shown. Read-outs that look alike come from different tables or passages of the source.

Assays:
hACC2 = hACC2 (Homo sapiens, UniProt O00763); assay: In vitro ACC2 inhibition assay (ADP-Glo), human ACC2; assay type: biochemical
Procedure: An exemplary procedure for the in vitro ACC inhibition assay, which can be used to determine the inhibitory action of compounds of the invention toward either human (hACC2) or fungal (fACC2) ACC2, follows. The ADP-Glo™ Kinase Assay kit from Promega was used. The ADP-Glo™ Kinase Assay is a luminescent ADP detection assay to measure enzymatic activity by quantifying the amount of ADP produced during an enzyme reaction. The assay is performed in two steps; first, after the enzyme reaction, an equal volume of ADP-Glo™ Reagent is added to terminate the reaction and deplete the remaining ATP. Second, the Kinase Detection Reagent is added to simultaneously convert ADP to ATP and allow the newly synthesized ATP to be measured using a luciferase/luciferin reaction. Luminescence can be correlated to ADP concentrations by using an ATP-to-ADP conversion curve. The detailed procedure is as follows. 50 μL of the compound being tested (600 μM in DMSO) was added to a 384-well dilution plate. The compound was diluted 1:3 in succession in DMSO for each row for 11 wells. 0.5 μL ACC2 working solution was added to 384-well white Optiplate assay plate. 0.5 μL diluted compound solution in each column from step 2 was added to assay plate, each row containing 2 replicates. For the last 2 rows, 0.5 μL negative control (DMSO) was added in one row and 0.5 μL positive control (compound I-97) in the other. The plates were incubated at room temperature for 15 minutes. 5 μL substrate working solution was added to each well to initiate reaction. Final ACC2 reaction concentrations consist of: 5 nM ACC2, 20 μM ATP, 20 μM acetyl-CoA, 12 mM NaHCO3, 0.01% Brij35, 2 mM DTT, 5% DMSO, test compound concentrations: 30 μM, 10 μM, 3.33 μM, 1.11 μM, 0.37 μM, 0.123 μM, 0.0411 μM, 0.0137 μM, 0.00457 μM, 0.00152 μM, and 0.00051 μM. Plates were incubated at room temperature for 60 minutes. 10 μL ADP glo reagent was added. Plates were incubated at room temperature for 40 minutes. 20 μL kinase detection reagent was added. Plates were incubated at room temperature for 40 minutes, and then read on a Perkin Elmer EnVision 2104 plate reader for luminescence as Relative Light Units (RLU).
Data for each concentration, as well as the positive and negative controls, were averaged, and the standard deviation calculated. Percent inhibition was calculated by the formula: 100×(average negative control−compound)/(average negative control−average positive control). The IC50 for each compound was calculated by fitting the data with a non-linear regression equation: Y=Bottom+(Top−Bottom)/(1+10^((Log IC50−X)*HillSlope)), where X is the log of compound concentration and Y is percent inhibition.

Botrtyis cinerea (Bc) = assay: Growth inhibition assay of fungal pathogens; assay type: cell-based; settings: 48 h, read-out: Concentration at 90% Inhibition Bc
Procedure: (§1) Compounds of the present invention were evaluated in a growth inhibition assay to determine the ability to control the growth of fungal pathogens, such as Botrtyis cinerea (Bc), Collectotrichum graminicola (Cg), Diplodia maydis (Dm), Fusarium moniliforme (Fm), Fusarium virguhforme (Fv), Phytophthora capsici (Pc), Rhizoctonia solani (Rs), and Septoria tritici (St). Compounds to be tested were dissolved in DMSO at 2.5 mg/ml to produce compound stock solutions (“stocks”). Stocks were diluted with DMSO by a five-fold dilution in a 96-well stock plate, and two sets of final concentrations of 50, 10, and 2 ppm or 2, 0.4, and 0.08 ppm were obtained in vitro. A set of positive controls was also prepared, with various concentrations of Soraphen (2, 0.4, and 0.08 ppm), Metalaxyl (1.1, 0.22, and 0.04 ppm), and Metconazole (2, 0.4, and 0.08 ppm or 0.2, 0.04, and 0.008 ppm) after the five-fold dilutions. Negative controls on each plate included 2% DMSO, water, and a blank (media+2% DMSO). Fungal spores were isolated from previously sub-cultured plates of Botrtyis cinerea (Bc), Collectotrichum graminicola (Cg), Diplodia maydis (Dm), Fusarium moniliforme (Fm), Fusarium virguliforme (Fv), Phytophthora capsici (Pc), and Septoria tritici (St). The isolated spores were diluted to individual concentrations with a 17% V8 liquid media. For Rhizoctonia solani (Rs) and Pythium irregulare, 1.5 mm mycelial plugs were used in place of spores and ¼ Potato Dextrose Broth (PDB) was used for dilution. The spore concentrations and plug sizes were based on growth curves generated at 48 hours for each pathogen. In a second 96-well plate, the spores or mycelial plugs, media, diluted compound solutions, and controls were combined. Once the compound was added, a true final concentration of compound in each well was measured by an OD600 reading, which adjusted for any compound precipitation that might have occurred in the well. Plate readings were repeated at both 24 and 48 hours. The blank negative control was used as a background subtraction. Additional visual ratings were performed at both 24 and 48 hours for checking on precipitation and confirming efficacy. Visual and OD600 ratings of the compounds at 48 hours were compared to the 2% DMSO negative control, and the percent of pathogen growth inhibition was determined based on those values.

[1] = test system: Collectotrichum graminicola (Cg); assay: Growth inhibition assay of fungal pathogens; assay type: cell-based; settings: 48 h, read-out: Concentration at 90% Inhibition Cg
Procedure: as §1

Diplodia maydis (Dm) = assay: Growth inhibition assay of fungal pathogens; assay type: cell-based; settings: Stenocarpella maydis, 48 h, read-out: Concentration at 90% Inhibition Dm
Procedure: as §1

[2] = test system: Fusarium moniliforme (Fm); assay: Growth inhibition assay of fungal pathogens; assay type: cell-based; settings: Fusarium verticillioides, 48 h, read-out: Concentration at 90% Inhibition Fm
Procedure: as §1

[3] = test system: Fusarium virguliforme (Fv); assay: Growth inhibition assay of fungal pathogens; assay type: cell-based; settings: 48 h, read-out: Concentration at 90% Inhibition Fv
Procedure: as §1

[4] = test system: Phytophthora capsici (Pc); assay: Growth inhibition assay of fungal pathogens; assay type: cell-based; settings: 48 h, read-out: Concentration at 90% Inhibition Pc
Procedure: as §1

Rhizoctonia solani (Rs) = assay: Growth inhibition assay of fungal pathogens; assay type: cell-based; settings: 48 h, read-out: Concentration at 90% Inhibition Rs
Procedure: as §1

Septoria tritici (St) = assay: Growth inhibition assay of fungal pathogens; assay type: cell-based; settings: Zymoseptoria tritici, 48 h, read-out: Concentration at 90% Inhibition St
Procedure: as §1

Sequence of hACC2 (O00763 whole entry): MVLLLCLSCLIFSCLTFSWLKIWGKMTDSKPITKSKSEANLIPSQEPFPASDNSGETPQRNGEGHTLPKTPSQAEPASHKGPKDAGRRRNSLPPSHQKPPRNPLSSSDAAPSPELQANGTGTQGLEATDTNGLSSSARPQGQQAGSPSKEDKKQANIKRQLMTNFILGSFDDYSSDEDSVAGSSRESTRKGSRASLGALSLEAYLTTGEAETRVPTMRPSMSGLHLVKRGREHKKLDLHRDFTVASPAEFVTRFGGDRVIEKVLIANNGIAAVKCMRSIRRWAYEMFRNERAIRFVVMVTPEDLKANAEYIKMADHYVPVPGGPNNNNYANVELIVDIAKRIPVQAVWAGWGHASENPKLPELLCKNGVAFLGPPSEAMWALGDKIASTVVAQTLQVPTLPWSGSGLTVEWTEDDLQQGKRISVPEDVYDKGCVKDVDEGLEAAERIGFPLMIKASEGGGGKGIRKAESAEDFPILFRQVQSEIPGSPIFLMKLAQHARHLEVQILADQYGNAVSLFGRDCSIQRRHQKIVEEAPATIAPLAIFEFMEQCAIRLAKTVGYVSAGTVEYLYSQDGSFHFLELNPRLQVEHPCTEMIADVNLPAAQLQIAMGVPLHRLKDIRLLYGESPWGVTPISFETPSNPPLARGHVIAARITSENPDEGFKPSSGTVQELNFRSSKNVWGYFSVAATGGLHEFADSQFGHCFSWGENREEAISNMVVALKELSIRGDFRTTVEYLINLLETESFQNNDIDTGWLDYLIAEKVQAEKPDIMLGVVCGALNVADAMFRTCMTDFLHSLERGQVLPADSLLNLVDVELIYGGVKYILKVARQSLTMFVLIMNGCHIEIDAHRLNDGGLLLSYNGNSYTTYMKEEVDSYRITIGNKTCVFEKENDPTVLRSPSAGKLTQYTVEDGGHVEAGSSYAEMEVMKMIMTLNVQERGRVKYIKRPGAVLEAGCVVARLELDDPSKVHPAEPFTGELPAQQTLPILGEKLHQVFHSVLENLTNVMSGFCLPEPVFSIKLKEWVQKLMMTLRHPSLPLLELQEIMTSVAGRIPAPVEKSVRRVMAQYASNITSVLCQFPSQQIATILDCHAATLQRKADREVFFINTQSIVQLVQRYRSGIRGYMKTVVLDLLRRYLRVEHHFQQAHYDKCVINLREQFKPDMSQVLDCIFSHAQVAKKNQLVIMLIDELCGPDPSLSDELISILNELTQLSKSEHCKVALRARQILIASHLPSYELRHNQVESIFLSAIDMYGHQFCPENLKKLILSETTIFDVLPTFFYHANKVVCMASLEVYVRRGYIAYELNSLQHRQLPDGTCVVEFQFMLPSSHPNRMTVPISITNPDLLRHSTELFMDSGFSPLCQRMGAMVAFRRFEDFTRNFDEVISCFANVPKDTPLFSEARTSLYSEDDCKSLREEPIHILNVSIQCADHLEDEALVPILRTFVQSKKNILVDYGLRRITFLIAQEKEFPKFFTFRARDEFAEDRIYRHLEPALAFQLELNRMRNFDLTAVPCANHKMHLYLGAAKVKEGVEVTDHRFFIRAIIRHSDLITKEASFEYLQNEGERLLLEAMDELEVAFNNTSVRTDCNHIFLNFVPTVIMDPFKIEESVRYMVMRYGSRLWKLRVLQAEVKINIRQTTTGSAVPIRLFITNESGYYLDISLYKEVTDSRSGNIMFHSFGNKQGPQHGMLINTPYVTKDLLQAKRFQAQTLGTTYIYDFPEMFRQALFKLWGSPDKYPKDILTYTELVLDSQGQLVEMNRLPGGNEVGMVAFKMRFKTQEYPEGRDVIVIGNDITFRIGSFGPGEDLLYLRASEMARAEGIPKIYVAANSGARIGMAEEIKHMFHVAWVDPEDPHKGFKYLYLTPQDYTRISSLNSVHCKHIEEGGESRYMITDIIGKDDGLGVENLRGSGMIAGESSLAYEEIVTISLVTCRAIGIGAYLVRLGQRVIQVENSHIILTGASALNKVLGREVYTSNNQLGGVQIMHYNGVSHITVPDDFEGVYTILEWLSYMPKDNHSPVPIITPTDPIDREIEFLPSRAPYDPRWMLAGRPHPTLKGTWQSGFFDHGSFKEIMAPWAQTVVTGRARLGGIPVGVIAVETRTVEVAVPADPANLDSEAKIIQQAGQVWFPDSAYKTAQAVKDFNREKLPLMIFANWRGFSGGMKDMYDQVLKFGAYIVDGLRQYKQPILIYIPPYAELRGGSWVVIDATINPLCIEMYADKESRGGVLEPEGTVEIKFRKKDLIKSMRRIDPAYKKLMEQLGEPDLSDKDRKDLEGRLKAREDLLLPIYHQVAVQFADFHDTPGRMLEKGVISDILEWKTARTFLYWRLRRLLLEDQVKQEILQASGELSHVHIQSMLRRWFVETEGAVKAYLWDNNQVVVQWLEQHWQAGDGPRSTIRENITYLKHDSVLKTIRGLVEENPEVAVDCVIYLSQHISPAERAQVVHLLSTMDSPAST

Structure (SMILES)	IC50 (hACC2; Table 2a) [µM]	IC50 (hACC2; Table 2b (additional results)) [µM]	IC90 (Botrtyis cinerea (Bc); Table 4a) [mg/L]	IC90 (Botrtyis cinerea (Bc); Table 4b) [mg/L]	IC90 ([1]; Table 4a) [mg/L]	IC90 ([1]; Table 4b) [mg/L]	IC90 (Diplodia maydis (Dm); Table 4a) [mg/L]	IC90 (Diplodia maydis (Dm); Table 4b) [mg/L]	IC90 ([2]; Table 4a) [mg/L]	IC90 ([2]; Table 4b) [mg/L]	IC90 ([3]; Table 4a) [mg/L]	IC90 ([3]; Table 4b) [mg/L]	IC90 ([4]; Table 4a) [mg/L]	IC90 ([4]; Table 4b) [mg/L]	IC90 (Rhizoctonia solani (Rs); Table 4a) [mg/L]	IC90 (Rhizoctonia solani (Rs); Table 4b) [mg/L]	IC90 (Septoria tritici (St); Table 4a) [mg/L]	IC90 (Septoria tritici (St); Table 4b) [mg/L]
CCOC(=O)c1sc2c(c1C)c(=O)n(C(C)(C)C(=O)N1CCCC1)c(=O)n2C[C@H](OC1CCOCC1)c1ccccc1OC [Compound I-3, ethyl (R)-1-(2-(2-methoxyphenyl)-2-((tetrahydro-2H-pyran-4-yl)oxy)ethyl)-5-methyl-3-(2-methyl-1-oxo-1-(pyrrolidin-1-yl)propan-2-yl)-2,4-dioxo-1,2,3,4-tetrahydrothieno[2,3-d]pyrimidine-6-carboxylate]	0.01 to 0.04	0.01 to 0.04	2 (≈ 3.19 µM)	2 (≈ 3.19 µM)	0.4 (≈ 0.637 µM)	0.4 (≈ 0.637 µM)	2 (≈ 3.19 µM)	2 (≈ 3.19 µM)	0.08 (≈ 0.127 µM)	0.08 (≈ 0.127 µM)	0.4 (≈ 0.637 µM)	0.4 (≈ 0.637 µM)	≥ 50	≥ 50	0.4 (≈ 0.637 µM)	0.4 (≈ 0.637 µM)	≥ 50	≥ 50
CCOC(=O)c1sc2c(c1C)c(=O)n(C(C)(C)C(=O)N1CCCCC1)c(=O)n2C[C@H](OC(C)C)c1ccccc1OC [Compound I-6, (R)-ethyl 1-(2-isopropoxy-2-(2-methoxyphenyl)ethyl)-5-methyl-3-(2-methyl-1-oxo-1-(piperidin-1-yl)propan-2-yl)-2,4-dioxo-1,2,3,4-tetrahydrothieno[2,3-d]pyrimidine-6-carboxylate]	0.01 to 0.04	0.01 to 0.04	0.4 (≈ 0.667 µM)	0.4 (≈ 0.667 µM)	0.4 (≈ 0.667 µM)	0.4 (≈ 0.667 µM)	0.4 (≈ 0.667 µM)	0.4 (≈ 0.667 µM)	0.08 (≈ 0.133 µM)	0.08 (≈ 0.133 µM)	0.4 (≈ 0.667 µM)	0.4 (≈ 0.667 µM)	≥ 50	≥ 50	0.4 (≈ 0.667 µM)	0.4 (≈ 0.667 µM)	10 (≈ 16.7 µM)	2 (≈ 3.33 µM)
CCOC(=O)c1sc2c(c1C)c(=O)n(C(C)(C)C(=O)NC(C)C)c(=O)n2C[C@H](OCCC#N)c1ccccc1OC [Compound I-31, ethyl (R)-1-(2-(2-cyanoethoxy)-2-(2-methoxyphenyl)ethyl)-3-(1-(isopropylamino)-2-methyl-1-oxopropan-2-yl)-5-methyl-2,4-dioxo-1,2,3,4-tetrahydrothieno[2,3-d]pyrimidine-6-carboxylate]		0.003 to 0.01		0.4 (≈ 0.684 µM)		0.4 (≈ 0.684 µM)		0.4 (≈ 0.684 µM)		0.08 (≈ 0.137 µM)		0.4 (≈ 0.684 µM)		2 (≈ 3.42 µM)		2 (≈ 3.42 µM)		10 (≈ 17.1 µM)
CCOC(=O)c1sc2c(c1C)c(=O)n(C(C)(C)C(=O)NC(C)C)c(=O)n2C[C@H](OC(C)C)c1ccccc1OC [Compound I-9, (R)-ethyl 1-(2-isopropoxy-2-(2-methoxyphenyl)ethyl)-3-(1-(isopropylamino)-2-methyl-1-oxopropan-2-yl)-5-methyl-2,4-dioxo-1,2,3,4-tetrahydrothieno[2,3-d]pyrimidine-6-carboxylate]	0.01 to 0.04	0.01 to 0.04	0.4 (≈ 0.697 µM)	0.4 (≈ 0.697 µM)	2 (≈ 3.49 µM)	2 (≈ 3.49 µM)	0.4 (≈ 0.697 µM)	0.4 (≈ 0.697 µM)	0.08 (≈ 0.139 µM)	0.08 (≈ 0.139 µM)	0.4 (≈ 0.697 µM)	0.4 (≈ 0.697 µM)	≥ 50	≥ 50	≥ 50	10 (≈ 17.4 µM)	≥ 50	≥ 50
CCOC(=O)c1sc2c(c1C)c(=O)n(C(C)(C)C(=O)N1CCCC1)c(=O)n2C[C@H](OC(C)C)c1ccccc1OC [Compound I-7, (R)-ethyl 1-(2-isopropoxy-2-(2-methoxyphenyl)ethyl)-5-methyl-3-(2-methyl-1-oxo-1-(pyrrolidin-1-yl)propan-2-yl)-2,4-dioxo-1,2,3,4-tetrahydrothieno[2,3-d]pyrimidine-6-carboxylate]	0.01 to 0.04	0.01 to 0.04	0.4 (≈ 0.683 µM)	0.4 (≈ 0.683 µM)	0.4 (≈ 0.683 µM)	0.4 (≈ 0.683 µM)	0.4 (≈ 0.683 µM)	0.4 (≈ 0.683 µM)	0.08 (≈ 0.137 µM)	0.08 (≈ 0.137 µM)	0.4 (≈ 0.683 µM)	0.4 (≈ 0.683 µM)	≥ 50	≥ 50	0.08 (≈ 0.137 µM)	0.08 (≈ 0.137 µM)	10 (≈ 17.1 µM)	2 (≈ 3.41 µM)
CCOC(=O)c1sc2c(c1C)c(=O)n([C@@H](C)C(=O)N(C)C(C)C)c(=O)n2C[C@H](OCCC#N)c1cc(F)ccc1OC [Compound I-28, ethyl 1-((R)-2-(2-cyanoethoxy)-2-(5-fluoro-2-methoxy-phenyl)-ethyl)-3-((S)-1-(isopropyl(methyl)amino)-1-oxopropan-2-yl)-5-methyl-2,4-dioxo-1,2,3,4-tetrahydrothieno[2,3-d]pyrimidine-6-carboxylate]		0.003 to 0.01		2 (≈ 3.32 µM)		10 (≈ 16.6 µM)		10 (≈ 16.6 µM)		0.4 (≈ 0.664 µM)		0.4 (≈ 0.664 µM)		≥ 50		0.08 (≈ 0.133 µM)		10 (≈ 16.6 µM)
CCOC(=O)c1sc2c(c1C)c(=O)n([C@@H](C)C(=O)N1CCCC1)c(=O)n2C[C@H](OCCC#N)c1cc(F)ccc1OC [Compound I-23, ethyl 1-((R)-2-(2-cyanoethoxy)-2-(5-fluoro-2-methoxy-phenyl)ethyl)-5-methyl-2,4-dioxo-3-((S)-1-oxo-1-(pyrrolidin-1-yl)propan-2-yl)-1,2,3,4-tetrahydrothieno[2,3-d]pyrimidine-6-carboxylate]		0.003 to 0.01		10 (≈ 16.6 µM)		≥ 50		10 (≈ 16.6 µM)		2 (≈ 3.33 µM)		≥ 50		≥ 50		10 (≈ 16.6 µM)		≥ 50
